Earlier results, collected in patent publication US8314091B2, “N-benzyl,N'-arylcarbonylpiperazine derivatives” (MSD OSS B.V., priority 2007, dated 2012).

Columns and labels:
[1] = system: tumours in an animal model of prostate cancer
β-amyloid = details: in vivo
[2] = system: vascular smooth muscle cell proliferation and neointima formation; details: following balloon injury, in vitro and in vivo

O=S(=O)(c1ccccc1)N(CC(F)(F)F)c1ccc(C(O)(C(F)(F)F)C(F)(F)F)cc1 [Example T0901317]
effect on progression of tumours [1]: delayed progression of tumours
deposition of β-amyloid (β-amyloid): lower deposition of β-amyloid
memory (β-amyloid): improve memory
effect on vascular smooth muscle cell proliferation and neointima formation [2]: inhibit vascular smooth muscle cell proliferation and neointima formation
